The text below walks through data of paper PMC4104029, “Mechanism of Action of Compound-13: An α1-Selective Small Molecule Activator of AMPK” (Chemistry & Biology, 2014).

One data set relates to adenylate kinase. As to the kind of experiment: Adenylate kinase assay. It counts as biochemical. The conditions noted are these: concentrations up to 100 μM; data not shown. The protocol: Additional enzyme assays. Glycogen phosphorylase (EC 2.4.1.1) was assayed in the physiological direction in reactions containing 20 mM BES pH 6.8, 20 mM phosphate, 1 mM NADP+, 0.5 mM MgCl2, 0.1 % glycogen, 4 µM glucose-1,6-bisphosphate, 0.5 mM DTT, 0.025 % BSA, 0.6 U/ml phosphoglucomutase and 3 U/ml glucose-6-phosphate dehydrogenase (G6PDH). FBP1 (EC 3.1.3.11) was assayed in reactions containing 50 mM TES pH 7.4, 0.1 […]
mM 2-mercaptoethanol, 25 µM fructose-1,6-bisphosphate, 0.8 U/ml phosphoglucoisomerase and 0.5 U/ml G6PDH. PFK1 (EC 2.7.1.11) was assayed in reactions containing 50 mM TES pH 7.4, 2 mM MgCl2, 0.05 % BSA, 2 mM 2-mercaptoethanol, 0.5 mM fructose-6-phosphate, 1 mM ATP, 0.2 mM NADH, 0.5 U/ml aldolase, 15 U/ml triosephosphate isomerase and 2 U/ml α-glycerophosphate dehydrogenase. […] All assays were performed in a final volume of 250 µl and were monitored by changes in fluorescence (FBP1 - λex 340nm, λem 450nm) or A340. […] Liberated phosphate was determined using malachite green reagent. […] The formation of pyrophosphate (PPi) was monitored by reduction of PPi-molybdate complexes using 2-mercaptoethanol and Fiske-Subbarow reducer (Kuang, et al., 2007). […]
Tricistronic expression vectors were constructed using a strategy inspired by Neumann et al (Neumann, et al., 2003). […] The open reading frame of AMPKα1 and AMPKα2 was inserted after the 6×His tag as a Bamh1-Not1 fragment. […]

For data set [1], the target named is AMPKα2β1γ1 Thr172 dephosphorylation by PP2Cα (Homo sapiens, UniProt P54619+P54646). The data set is described as follows: Phosphatase protection assay (PP2Cα). To be noted: incubation with PP2Cα; 1–10 μM. It is filed as biochemical. The procedure: Figure 2 C2 Is a Partial Agonist of α2 Complexes and Selectively Protects α1 Complexes against Dephosphorylation by PP2C (A and B) Recombinant AMPKα1β1γ1 (A) or AMPKα2β1γ1 (B) was assayed in the presence of AMP (30 μM) and increasing concentrations of C2 (0–20 μM). Results are expressed as fold increase in activity relative to controls without ligand and represent the mean ± SD for three independent experiments. (C and D) The effects of C2 and AMP on dephosphorylation and inactivation of AMPKα1β1γ1 (C) and α2β1γ1 (D) by PP2Cα (present in all assay conditions). Results are expressed as a percentage of control reactions performed in the absence of Mg^2+ and represent the mean ± SD of three independent experiments. Representative blots of pT172 and total AMPKα are shown below the bar charts. (E) AMPKα1β1γ2 WT (open bars) and mutant complexes (β1 ΔCBD [β1 Δ1–185], gray bars, and γ2 R531G, black bars) were purified from COS1 cells by transient overexpression of the indicated constructs, as described in Methods, and assayed in the presence of the indicated compounds under standard conditions. Results are expressed as the fold increase in activity relative to controls in the absence of compound and represent the mean ± SD for three independent experiments.
Chain of AMPKα2β1γ1 Thr172 dephosphorylation by PP2Cα (P54646 whole entry): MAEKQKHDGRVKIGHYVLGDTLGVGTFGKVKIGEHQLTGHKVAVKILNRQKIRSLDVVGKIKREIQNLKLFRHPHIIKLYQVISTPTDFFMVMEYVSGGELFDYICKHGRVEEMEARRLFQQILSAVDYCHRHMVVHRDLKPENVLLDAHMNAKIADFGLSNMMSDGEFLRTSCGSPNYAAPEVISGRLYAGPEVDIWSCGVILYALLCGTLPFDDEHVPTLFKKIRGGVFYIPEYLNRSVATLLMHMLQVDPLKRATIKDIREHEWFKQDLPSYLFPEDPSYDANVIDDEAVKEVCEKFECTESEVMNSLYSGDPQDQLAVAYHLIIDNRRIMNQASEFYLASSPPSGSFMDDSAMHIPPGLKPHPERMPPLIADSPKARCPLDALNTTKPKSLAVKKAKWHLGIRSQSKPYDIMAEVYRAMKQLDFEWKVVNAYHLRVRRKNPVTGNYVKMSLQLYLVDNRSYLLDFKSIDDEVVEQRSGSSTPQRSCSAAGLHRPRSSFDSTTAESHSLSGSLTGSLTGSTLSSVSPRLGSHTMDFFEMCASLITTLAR
Chain of AMPKα2β1γ1 Thr172 dephosphorylation by PP2Cα (Q9Y478 whole entry partner): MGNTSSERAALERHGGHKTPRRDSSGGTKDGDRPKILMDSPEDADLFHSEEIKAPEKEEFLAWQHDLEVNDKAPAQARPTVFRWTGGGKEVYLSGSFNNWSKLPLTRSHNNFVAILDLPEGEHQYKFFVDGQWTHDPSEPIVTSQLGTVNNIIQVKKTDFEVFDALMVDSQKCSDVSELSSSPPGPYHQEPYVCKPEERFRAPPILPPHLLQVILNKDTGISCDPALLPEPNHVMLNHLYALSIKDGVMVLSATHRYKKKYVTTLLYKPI
Chain of AMPKα2β1γ1 Thr172 dephosphorylation by PP2Cα (P54619 whole entry): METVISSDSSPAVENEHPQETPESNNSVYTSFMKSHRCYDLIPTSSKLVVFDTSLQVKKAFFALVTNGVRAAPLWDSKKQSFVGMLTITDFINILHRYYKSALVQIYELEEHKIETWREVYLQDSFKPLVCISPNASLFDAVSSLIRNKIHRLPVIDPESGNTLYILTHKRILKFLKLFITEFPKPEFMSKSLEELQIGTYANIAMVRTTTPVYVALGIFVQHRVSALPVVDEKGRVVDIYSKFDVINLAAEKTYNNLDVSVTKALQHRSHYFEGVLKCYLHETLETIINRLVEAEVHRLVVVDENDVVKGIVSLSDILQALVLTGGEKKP
AMPKα1β1γ1 or α2β1γ1 was dephosphorylated in vitro with PP2Cα in 50 mM HEPES pH 7.4, 10 mM MgCl2, 0.1 mM EGTA, 0.03% BRIJ-35, 1 mM DTT, and the indicated compounds for 15 min at 30°C. Mg^2+ was omitted from the negative control. Reactions were terminated by 20-fold dilution and storage on ice. AMPK activity was assayed under standard conditions in the presence of saturating AMP (200 μM). The results are expressed as percentage activity of the negative control. In control experiments, PP2Cα activity was determined in reactions containing 50 mM TES pH 7.4, 0.1 mM EGTA, 25 mM MgCl2, 0.01% BRIJ-35, 0.02% (v/v) 2-mercaptoethanol, and 100 μM EFLR(pT)SCGS (168–176 AMPKα2). Liberated phosphate was determined using malachite green ([Baykov et al., 1988]).

Details of data set [2]: method as in Gómez-Galeno et al., 2010. The conditions noted are these: 100 μM for up to 6 hr; ref Gómez-Galeno et al., 2010; cited from earlier work.
Another data set has as its system whole-body lipogenesis. To be noted: among a series of prodrugs; ref Gómez-Galeno et al., 2010; cited from earlier work.

Take `O=P(O)(O)c1ccc(-c2cc(O)on2)o1` [Compound C2, 5-(5-hydroxyl-isoxazol-3-yl)-furan-2-phosphonic acid]: the “effect on enzyme activity” value with adenylate kinase was “None of these enzymes were affected”. In data set [1], the effect on dephosphorylation result was “essentially no effect”. The cellular accumulation entry in data set [2] is “no significant cellular accumulation”.
For the compound `CC(C)C(=O)OCOP(=O)(OCOC(=O)C(C)C)c1ccc(C2=NOC(=O)C2)o1` [Compound C13], the “inhibition of whole-body lipogenesis” value in the data set on whole-body lipogenesis is listed as “most potent inhibition”.
